Results from patent publication US8030321B2, “Benzofuro- and benzothienopyrimidine modulators of the histamine H4 receptor” (Janssen Pharmaceutica, NV, priority 2006, dated 2011).
Counter-ions that a name gives are not always drawn.

biological target: T1, human histamine H4 receptor (Homo sapiens, UniProt Q9H3N8); experiment: Binding Assay on Recombinant Human Histamine H4 Receptor; settings: not given
T1 construct: expressed in transfected cells; host or cells: SK-N-MC cells or COS7 cells, transiently transfected; cell membranes used
Outline: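 Membranes from SK-N-MC or COS7 cells transiently transfected with human H4 receptor were incubated with ³H-histamine (5-70 nM); nonspecific binding defined with 10,000 nM histamine. Bound radioactivity collected by GF/C filtration and scintillation counting; test compounds assessed by displacement of ³H-ligand binding across concentrations.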

T1 sequence (Q9H3N8 whole entry): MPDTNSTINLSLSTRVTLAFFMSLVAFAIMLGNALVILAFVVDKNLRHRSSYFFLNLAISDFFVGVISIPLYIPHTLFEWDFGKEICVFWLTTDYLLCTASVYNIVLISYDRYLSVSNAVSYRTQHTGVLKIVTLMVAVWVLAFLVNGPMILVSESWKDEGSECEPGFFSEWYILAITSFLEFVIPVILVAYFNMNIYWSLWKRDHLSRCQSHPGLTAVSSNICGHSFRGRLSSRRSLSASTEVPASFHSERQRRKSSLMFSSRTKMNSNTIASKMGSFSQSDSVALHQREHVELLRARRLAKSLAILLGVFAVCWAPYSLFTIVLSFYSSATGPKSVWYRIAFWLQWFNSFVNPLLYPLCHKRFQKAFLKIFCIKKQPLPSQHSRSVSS

**Q.** `Nc1nc(N2CC3CCC(C2)N3)c2oc3ccc(Cl)cc3c2n1` [Example 97, 8-Chloro-4-(3,8-diaza-bicyclo[3.2.1]oct-3-yl)-benzo[4,5]furo[3,2-d]pyrimidin-2-ylamine trifluoroacetic acid salt] was tested. Which Ki did it give?
**A.** 42 nM

**Q.** How did the Ki turn out when `Nc1nc(N2CCN3CCCC3C2)c2oc3ccc(F)cc3c2n1` (stereo not shown) [Example 40, 8-Fluoro-4-(hexahydro-pyrrolo[1,2-a]pyrazin-2-yl)-benzo[4,5]furo[3,2-d]pyrimidin-2-ylamine trifluoroacetic acid salt] was run?
**A.** 44 nM

same assay, conditions: competition binding with 3H-histamine (5 nM), membranes of SK-N-MC or COS7 cells expressing human H4 receptor; Cheng-Prusoff, KD 5 nM; average of results obtained; read-out: Ki

**Q.** With `CN[C@@H]1CCN(c2nc(N)nc3c2sc2ccc(F)cc23)C1` [Example 76, (R)-8-Fluoro-4-(3-methylamino-pyrrolidin-1-yl)-benzo[4,5]thieno[3,2-d]pyrimidin-2-ylamine trifluoroacetic acid salt] as the compound, how does the Ki read?
**A.** 32 nM

**Q.** `Nc1nc(N2CCNCC2)c2oc3cccc(F)c3c2n1` [Example 137, 9-Fluoro-4-piperazin-1-yl-benzo[4,5]furo[3,2-d]pyrimidin-2-ylamine trifluoroacetic acid salt] was tested. Which Ki did it give?
**A.** 150 nM

**Q.** With `CN1CCN(c2nc(N)nc3c2oc2ccc(C(F)(F)F)cc23)CC1` [Example 139, 4-(4-Methyl-piperazin-1-yl)-8-trifluoromethyl-benzo[4,5]furo[3,2-d]pyrimidin-2-ylamine trifluoroacetic acid salt] as the compound, how does the Ki read?
**A.** 0.8 nM

**Q.** Which Ki does the source give for `OCCNc1nc(N2C[C@@H]3C[C@H]2CN3)c2oc3ccc(Cl)cc3c2n1` [Example 125, (S,S)-2-[8-Chloro-4-(2,5-diaza-bicyclo[2.2.1]hept-2-yl)-benzo[4,5]furo[3,2-d]pyrimidin-2-ylamino]-ethanol] here?
**A.** 580 nM

**Q.** `Nc1nc(N2CC3CCCNC3C2)c2oc3c(Cl)cc(Cl)cc3c2n1` (stereo not shown) [Example 2, 6,8-Dichloro-4-(octahydro-pyrrolo[3,4-b]pyridin-6-yl)-benzo[4,5]furo[3,2-d]pyrimidin-2-ylamine trifluoroacetic acid salt] was tested. Which Ki did it give?
**A.** 7.1 nM
